Assay results: patent US6589773B1, “Methods and compositions for a modified yeast strain with increased permeability and uses thereof” (priority 2000, dated 2003)
≈ marks a conversion by molar mass, not a printed value.

Columns and labels:
[1] = system: modified strains SKY54 and SKY197; test: Yeast strain sensitivity to selected compounds (top-agar death zones / MIC), modified strains; type: cell-based, S. cerevisiae; settings: for change of sensitivity on induction of HXT9 and HXT11 expression: Gal/Raff containing media; for sensitivity relative to parental strains SKY48 and SKY191, based on the size of the death zones: YPD media, same concentration
Description: As used herein, “hyperpermeable” yeast cells or a “hyperpermeable” yeast strain, are yeast cells and strains which have an increased sensitivity to one or more test compounds, relative to the sensitivity of the yeast cells and strains without the above-described insertion-disruption of genes that alter cellular permeability. Sensitivity to such compounds and small molecules is determined by measuring the MIC (minimal inhibitory concentration) of such compounds to visible growth of yeast cells, disregarding a haze of barely visible growth of such yeast cells.
(§1) Decreasing concentrations of cycloheximide, 4-nitroquinolin-oxide, sulfmethuron methyl, and Zeocin were plated on parental yeast strains SKY48 and SKY191 and the modified yeast strains SKY54 and SKY197. From top to bottom of each plate, and from left to right of each row: 5 μg, 2.5 μg, 1 μg, 0.5 μg, 0.2 μg, and 50 ng of CYH; 2.5 μg, 1.25 μg, 0.5 μg, 0.25 μg, 0.1 μg, and 25 ng of NQO; 100 μg, 50 μg, 20 μg, 10 μg, 4 μg, and 1 μg of SMM; and 100 μg, 50 μg, 20 μg, 10 μg, 4 μg, and 1 μg of Zeo.
Yeast strain sensitivity to selected compounds SKY54 and SKY197 were tested for sensitivity to various concentrations of compounds, including cycloheximide (CYH), 4-nitroquinolin-oxide (NQO), sulfmethuron methyl (SMM) and Zeocin (Zeo), relative to the sensitivity of the parental strains, SKY48 and SKY191 to these compounds. Yeast cells were propagated on YPD or YPG/R plates in top-agar layer containing 1% of low melt SeaPlaque agarose and YPD or YPG/R growth media with glucose or galactose as the carbon source. CYH (5 mg/ml), NQO (2.5 mg/ml), SMM (100 mg/ml) and Zeo (100 mg/ml) stock solutions were diluted 2, 5, 10, 25, and 100-fold, and applied on top-agar growing yeast by means of prone device. Sensitivity to various concentrations of compounds was scored by visualization of growth on this media, and the size of “death zones” of sensitive colonies. Thus, the plates shown in FIG. 15 show the sensitivity of the parental and modified yeast strains to, from top to bottom of each plate, and from left to right of each row, 5 μg, 2.5 μg, 1 μg, 0.5 μg, 0.2 μg, and 50 ng of CYH; 2.5 μg, 1.25 μg, 0.5 μg, 0.25 μg, 0.1 μg, and 25 ng of NQO; 100 μg, 50 μg, 20 μg, 10 μg, 4 μg, and 1 μg of SMM; and 100 μg, 50 μg, 20 μg, 10 μg, 4 μg, and 1 μg of Zeo. […] When SKY54 and SKY197 were incubated on Gal/Raff containing media, thereby inducing expression of HXT9 and HXT11 genes, the sensitivity to CYH and 4-NQO increased. The estimated increase of death zone diameters for 4-NQO for SKY54 and SKY 197 on Gal/Raff media in comparison with the parental strains grown on the same media was ˜32-40%. After 48 hours of incubation on Gal/Raff media, sensitivity to CYH was estimated to be 0.01 μg/ml MIC (minimal inhibitory concentration). The MIC is defined as the lowest concentration (micrograms per milliliter of broth) that inhibited visible growth, disregarding a haze of barely visible growth. Sensitivity to CYH of a yeast strain harboring PDR1 and PDR3 deletions, and the HXT11 gene overexpressed from a multicopy plasmid, was previously reported as having an MIC of 0.03 μg/ml CYH (Nourani et al., 1997, Mol. Cell. Biol. 17:5453-5460). […] A comparative analysis of parental strain SKY48 and obtained SKY54 to 73,400 compounds from the SMT chemical library is shown in Table 2. SKY48 is sensitive to 1,959 compounds while SKY54 is sensitive to 3,011 compounds. Thus, SKY54 was sensitive to 154% as many compounds as the parental strain, SKY48.

[2] = system: yeast strain harboring PDR1 and PDR3 deletions, and the HXT11 gene overexpressed from a multicopy plasmid; settings: previously reported, Nourani et al., 1997; cited from earlier work
[3] = system: parental strains SKY48 and SKY191; test: Yeast strain sensitivity to selected compounds (top-agar death zones), parental strains; type: cell-based, S. cerevisiae; settings: all concentrations tested (100 μg to 1 μg)
Description: as §1
SKY48 and SKY191 parental strains The parent strains SKY48 and SKY 191 (MATαtrp1 URA3 his3 lexAop-LEU2 cIop-LYS2), with 6 or 2 lexA operators upstream of LEU2, respectively, have been described (Serebriiskii et al., 1999, J. Biol. Chem. 274:17080-17087, which is incorporated herein by reference in its entirety).
Yeast strain sensitivity to selected compounds SKY54 and SKY197 were tested for sensitivity to various concentrations of compounds, including cycloheximide (CYH), 4-nitroquinolin-oxide (NQO), sulfmethuron methyl (SMM) and Zeocin (Zeo), relative to the sensitivity of the parental strains, SKY48 and SKY191 to these compounds. […] Sensitivity to various concentrations of compounds was scored by visualization of growth on this media, and the size of “death zones” of sensitive colonies. […]

O=[N+]([O-])c1cc[n+]([O-])c2ccccc12 [4-NQO, 4-nitroquinolin-oxide]
change of sensitivity on induction of HXT9 and HXT11 expression [1]: increased | estimated increase of death zone diameters in comparison with the parental strains ([1]; Gal/Raff media, parental strains grown on the same media): 32-40% | sensitivity relative to parental strains SKY48 and SKY191, based on the size of the death zones [1]: significantly more sensitive

C[C@@H]1C[C@@H]([C@H](O)CC2CC(=O)NC(=O)C2)C(=O)[C@@H](C)C1 [CYH, cycloheximide]
change of sensitivity on induction of HXT9 and HXT11 expression [1]: increased | MIC ([1]; Saccharomyces cerevisiae, SKY54ANDSKY197, 48 h, read-out: MIC (minimal inhibitory concentration)): 0.01 µg/mL (≈ 0.0355 µM) | sensitivity relative to parental strains SKY48 and SKY191, based on the size of the death zones [1]: significantly more sensitive | MIC [2]: 0.03 µg/mL (≈ 0.107 µM)

COC(=O)c1ccccc1S(=O)(=O)NC(=O)Nc1nc(C)cc(C)n1 [SMM, sulfmethuron methyl]
sensitivity (growth, size of death zones) [3]: no sensitivity | sensitivity (growth, size of death zones) ([1]; SKY54 and SKY197, all concentrations tested (100 μg to 1 μg)): no sensitivity
